Assay results published in US7652011B2, “4-[(arylmethyl)aminomethyl]piperidine derivatives, their preparation and their therapeutic application” (sanofi-aventis, priority 2003, dated 2010).

Cn1cccc1CNCC1(c2cccc(C(F)(F)F)c2)CCN(C(=O)CN2CCN(c3cnccn3)CC2)CC1 [Compound 1, [(1-Methyl-1H-pyrrol-2-yl)methyl][[1-[(4-pyrazin-2-ylpiperazin-1-yl)acetyl]-4-[3-(trifluoromethyl)phenyl]piperidin-4-yl]methyl]amine]
melting point: 104 to 105 °C
